# According to ChEMBL document CHEMBL2034835, “A solvent free, four-component synthesis and 1,3-dipolar cycloaddition of 4(H)-pyrans with nitrile oxides: synthesis and discovery of antimycobacterial activity of enantiomerically pure 1,2,4-oxadiazoles” (2012):
# What was measured:
# Type in all cases: functional
# [1] = system: Mycobacterium tuberculosis; assay: Antitubercular activity against isoniazid, rifampicin and ethambutol-resistant Mycobacterium tuberculosis clinical isolate after 28 days by agar dilution method; conditions: 672 h
# [2] = system: Mycobacterium tuberculosis; assay: Ratio of rifampicin MIC to compound MIC for multidrug-resistant Mycobacterium tuberculosis clinical isolate
# [3] = system: Mycobacterium tuberculosis; assay: Ratio of isoniazid MIC to compound MIC for multidrug-resistant Mycobacterium tuberculosis clinical isolate
# [4] = system: Mycobacterium tuberculosis; assay: Ratio of ciprofloxacin MIC to compound MIC for multidrug-resistant Mycobacterium tuberculosis clinical isolate
# [5] = system: Mycobacterium tuberculosis; assay: Ratio of ethambutol MIC to compound MIC for multidrug-resistant Mycobacterium tuberculosis clinical isolate
SMILES,MIC [1] [µM],further results
Cc1ccc(/C=C2\CN([C@H](C)c3ccccc3)CC3=C2OC(N)=C(c2nc(-c4ccc(Cl)cc4)no2)C3c2ccc(C)cc2)cc1 (stereo in doubt; 9d),1.24,–
C[C@H](c1ccccc1)N1CC2=C(OC(N)=C(c3nc(-c4ccccc4)no3)C2c2ccccc2Cl)/C(=C/c2ccccc2Cl)C1 (stereo in doubt; 9e),1.23,–
C[C@H](c1ccccc1)N1CC2=C(OC(N)=C(c3nc(-c4ccc(Cl)cc4)no3)C2c2ccccc2Cl)/C(=C/c2ccccc2Cl)C1 (stereo in doubt; 9f),0.6,–
C[C@H](c1ccccc1)N1CC2=C(OC(N)=C(c3nc(-c4ccccc4)no3)C2c2ccc(Cl)cc2Cl)/C(=C/c2ccc(Cl)cc2Cl)C1 (stereo in doubt; 9g),0.57,–
C[C@H](c1ccccc1)N1CC2=C(OC(N)=C(c3nc(-c4ccc(Cl)cc4)no3)C2c2ccc(Cl)cc2Cl)/C(=C/c2ccc(Cl)cc2Cl)C1 (stereo in doubt; 9h),0.14,Ratio [2]: 27.1; Ratio [3]: 81.3; Ratio [4]: 269.5; Ratio [5]: 437
C[C@H](c1ccccc1)N1CC2=C(OC(N)=C(c3nc(-c4ccccc4)no3)C2c2ccccc2)/C(=C/c2ccccc2)C1 (stereo in doubt; 10a),5.54,–
C[C@H](c1ccccc1)N1CC2=C(OC(N)=C(c3nc(-c4ccc(Cl)cc4)no3)C2c2ccccc2)/C(=C/c2ccccc2)C1 (stereo in doubt; 10b),2.6,–
CC[C@@H](CO)NCCN[C@@H](CC)CO [ETHAMBUTOL],61.2,–
NNC(=O)c1ccncc1 [ISONIAZID],11.4,–
CO[C@H]1/C=C/O[C@@]2(C)Oc3c(C)c(O)c4c(O)c(c(/C=N/N5CCN(C)CC5)c(O)c4c3C2=O)NC(=O)/C(C)=C\C=C\[C@H](C)[C@H](O)[C@@H](C)[C@@H](O)[C@@H](C)[C@H](OC(C)=O)[C@@H]1C [RIFAMPIN],3.8,–
